Source: patent publication US20040241720A1, “Sodium activated potassium ion channel for therapeutic drug screening” (priority 2003, published 2004)
Values belong to the molecule of their own block, whether it stands above or below them.

Target: T1, rSlo2 channels (Rattus norvegicus, UniProt Q9Z258)
T1 construct: expressed in transfected cells; host or cells: Xenopus laevis oocytes injected with capped cRNA (pOX vector); inside-out patches
T1 sequence (Q9Z258 1-1239): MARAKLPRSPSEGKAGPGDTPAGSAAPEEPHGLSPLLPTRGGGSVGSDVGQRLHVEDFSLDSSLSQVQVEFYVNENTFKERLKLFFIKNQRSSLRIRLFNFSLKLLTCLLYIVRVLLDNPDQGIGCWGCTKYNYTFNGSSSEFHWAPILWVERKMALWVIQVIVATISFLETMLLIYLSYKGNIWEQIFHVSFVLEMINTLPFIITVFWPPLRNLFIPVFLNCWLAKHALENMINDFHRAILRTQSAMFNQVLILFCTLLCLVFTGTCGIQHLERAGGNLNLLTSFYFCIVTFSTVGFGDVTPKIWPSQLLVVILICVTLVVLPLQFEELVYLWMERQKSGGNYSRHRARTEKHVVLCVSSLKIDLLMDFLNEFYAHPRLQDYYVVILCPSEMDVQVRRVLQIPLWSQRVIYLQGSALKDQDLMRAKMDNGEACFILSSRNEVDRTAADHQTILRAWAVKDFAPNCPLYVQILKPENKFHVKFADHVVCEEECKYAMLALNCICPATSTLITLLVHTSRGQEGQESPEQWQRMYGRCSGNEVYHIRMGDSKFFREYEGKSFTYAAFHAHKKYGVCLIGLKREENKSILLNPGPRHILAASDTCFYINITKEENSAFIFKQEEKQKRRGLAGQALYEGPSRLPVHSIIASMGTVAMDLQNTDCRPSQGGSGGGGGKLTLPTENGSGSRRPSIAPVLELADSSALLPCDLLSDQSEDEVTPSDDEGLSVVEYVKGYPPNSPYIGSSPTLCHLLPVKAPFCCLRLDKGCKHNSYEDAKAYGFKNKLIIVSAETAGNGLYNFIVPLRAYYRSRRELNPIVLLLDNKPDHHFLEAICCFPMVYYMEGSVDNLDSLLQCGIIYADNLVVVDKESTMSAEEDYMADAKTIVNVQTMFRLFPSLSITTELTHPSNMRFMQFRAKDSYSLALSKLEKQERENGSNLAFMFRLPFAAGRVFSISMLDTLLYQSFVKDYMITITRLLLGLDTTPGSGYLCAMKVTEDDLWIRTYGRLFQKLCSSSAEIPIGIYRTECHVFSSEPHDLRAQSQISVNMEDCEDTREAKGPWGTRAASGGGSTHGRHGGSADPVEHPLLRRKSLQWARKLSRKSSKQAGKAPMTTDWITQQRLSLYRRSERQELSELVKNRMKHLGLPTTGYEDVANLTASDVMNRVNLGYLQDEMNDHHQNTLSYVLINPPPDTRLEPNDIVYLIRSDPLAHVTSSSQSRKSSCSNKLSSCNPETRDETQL
Assay: Patch clamp of inside-out patches from Xenopus oocytes injected with rSlo2 cRNA
Assay type: cell-based
Protocol: FIG. 2a depicts current traces from an inside-out macropatch (2-3 MΩ electrode prior to seal formation) in the presence of 50 mM [Na+], FIG. 2a (i) and in the absence of [Na^+]i FIG. 2a (ii). Voltage steps (−70 mV to +70 mV) were applied in 10 mV increments from a holding potential of −70 mV. The calculated potassium equilibrium potential was −78 mV in these experiments. FIG. 2a (iii) The current-voltage relationship of the mean current obtained from 7 macropatches with a holding potential of −80 mV, and voltage steps from −80 to +80 mV in 10 mV increments FIG. 2a (iv) Plot of normalized IKNa obtained upon perfusion of inside-out patches with different Na^+ concentrations as indicated.
FIG. 2c depicts a current trace of an uninjected oocyte. […] For the macropatch experiments the pipette solution contained (in mM) 145 Na^+-gluconate, 5 KCI, 5 Ca^2+-gluconate, 3 Mg^2+-gluconate, 11 dextrose, 5 HEPES, pH 7.4 with NaOH. The bath solution contained (in mM): 110 KCI, 50 NaCI and 5 HEPES, pH 7.3 with KOH. NaCI was replaced by choline-Cl for the dose-response curve. In single channel experiments, the pipette solution contained (in mM) 80 K^+-gluconate, […], 5 HEPES, 2 MgCI2, pH 7.2 with KOH. The bath solution contained (in mM) 80 KCI, 80 NaCI or 80 cholineCl, 5 HEPES, 5 EGTA, pH 7.2 with KOH.
FIG. 5a (iii) depicts the current-voltage relationship of the mean current between 700-800 ms. The pipette solution contained (in mM) 80 K^+-gluconate, 80 Na^+-gluconate, 5 HEPES, 2 MgCI2, pH 7.2 with KOH. The bath solution contained (in mM) 80 KCI or 80 K^+-gluconate, 20 NaCI and 60 choline-Cl or 20 Na^+-gluconate and 120 dextrose, 5 HEPES, 5 EGTA, pH 7.2 with KOH. (b) (i) Dose response relationship for [Na+]i at 160 mM [CI]i or 10 mM [CI]i,. (ii) Dose response relationship for [CI]i at 80 mM [Na^+]i or 20 mM [Na^+]i. Currents for the dose response curves were measured and averaged over a 1 second interval at −60 mV and each patch was normalized to the current elicited in 80 mM [Na^+]i, and 160 mM [CI]i. Each experiment was completed within 120 seconds to minimize rundown and was perfused in order of decreasing [Na^+]i or [CI]i.
The single electrode patch clamp system was first used to analyze inside-out patches, and to investigate the properties of rSlo2 in the Xencpus oocyte expression system by transcribing cRNA and injecting it into oocytes.
To obtain efficient expression of rhSlo2.2 in Xencpus oocytes, the original rhSlo2.2 construct was cloned into pOX, a special vector optimized for oocyte expression. Capped cRNA was synthesized using the T3 mMessage mMachine kit (Ambion). rhSlo2.2 was linearized using NotI. Reactions were resuspended in nuclease-free water to a final concentration of 1.5 μg/μl. Oocytes were harvested from adult female Xenopus iaevis as described. Defolliculated oocytes were injected with approximately 75 ng of cRNA using a Drummond Nanojector. Injected oocytes were incubated at 19° C. in ND96 medium (in mM): 96 NaCl, 2 KCI, 1.8 CaCl2, 1 MgCl2, 5 HEPES, pH 7.5 with NaOH. Oocytes were analyzed 2-3 days after injection for single channel analysis or 3-6 days after injection for macroscopic current analysis.
Prior to recording, the vitelline membranes were mechanically removed. The contents of solutions used are described in the figure legends. […] Data were analyzed using pClamp 8.2 (Axon Instruments) and Sigmaplot 5 (Jandel Scientific) or Origin 5.0 (Microcal).

increase of amplitude of macroscopic current in patches (sodium concentration at cytoplasmic side increased from 10 to 50 mM, inside-out patch): more than ten times
Structure (SMILES): [Na+] [Na^+]

single channel activity (about 100 μM Ca^2+i, in the absence of Na^+i (data not shown)): inhibited
channel activity (presence of about 80 μM ~200 μM Ca^2+i (data not shown)): no effect
Structure (SMILES): [Ca+2] [Ca^2+i]

current as fraction of I max (55 mM Cl^−, 20 mM sodium ions, estimated from dose response plot): approximately 0.18 of I max
activation of rSlo2 by Cl^−i (seen only when Na^+i is also present): activated
Structure (SMILES): Cl [Cl^−]
